Test results from ChEMBL document CHEMBL4052645, “Discovery of potent and efficacious pyrrolopyridazines as dual JAK1/3 inhibitors” (Bioorg Med Chem Lett, 2017).

What was measured:
[1] = biological target: Mitogen-activated protein kinase kinase kinase kinase 3 (Homo sapiens) (UniProt Q8IVH8); test: Inhibition of wild-type human partial length KHS2 (M1 to D301 residues) expressed in bacterial expression system assessed as residual activity at 50 nM by Kinomescan method relative to control
[2] = biological target: Mitogen-activated protein kinase 10 (Homo sapiens) (UniProt P53779); test: Inhibition of wild-type human partial length JNK3 (V28 to Q422 residues) expressed in mammalian expression system assessed as residual activity at 50 nM by Kinomescan method relative to control
[3] = biological target: Insulin receptor-related protein (Homo sapiens) (UniProt P14616); test: Inhibition of wild-type human partial length IRR (R950 to E1278 residues) expressed in bacterial expression system assessed as residual activity at 50 nM by Kinomescan method relative to control
[4] = biological target: BDNF/NT-3 growth factors receptor (Homo sapiens) (UniProt Q16620); test: Inhibition of wild-type human partial length TRKB (Q547 to G838 residues) expressed in mammalian expression system assessed as residual activity at 50 nM by Kinomescan method relative to control
[5] = biological target: Serine/threonine-protein kinase 38-like (Homo sapiens) (UniProt Q9Y2H1); test: Inhibition of wild-type human partial length NDR2 (N34 to E447 residues) expressed in bacterial expression system assessed as residual activity at 50 nM by Kinomescan method relative to control
[6] = biological target: Cyclin-dependent kinase-like 3 (Homo sapiens) (UniProt Q8IVW4); test: Inhibition of wild-type human partial length CDKL3 (M1 to D327 residues) expressed in bacterial expression system assessed as residual activity at 50 nM by Kinomescan method relative to control
[7] = biological target: Phosphatidylinositol 5-phosphate 4-kinase type-2 beta (Homo sapiens) (UniProt P78356); test: Inhibition of wild-type human full length PIP5K2B (M1 to T416 residues) expressed in bacterial expression system assessed as residual activity at 50 nM by Kinomescan method relative to control
[8] = biological target: Receptor tyrosine-protein kinase erbB-2 (Homo sapiens) (UniProt P04626); test: Inhibition of wild-type human partial length ERBB2 (K646 to V1225 residues) expressed in mammalian expression system assessed as residual activity at 50 nM by Kinomescan method relative to control
[9] = biological target: Calcium/calmodulin-dependent protein kinase type II subunit alpha (Homo sapiens) (UniProt Q9UQM7); test: Inhibition of wild-type human partial length CAMK2A (M1 to K328 residues) expressed in bacterial expression system assessed as residual activity at 50 nM by Kinomescan method relative to control
[10] = biological target: High affinity nerve growth factor receptor (Homo sapiens) (UniProt P04629); test: Inhibition of wild-type human partial length TRKA (G475 to G790 residues) expressed in mammalian expression system assessed as residual activity at 50 nM by Kinomescan method relative to control
[11] = biological target: Serine/threonine-protein kinase TAO1 (Homo sapiens) (UniProt Q7L7X3); test: Inhibition of wild-type human partial length TAO1 (M1 to A320 residues) expressed in mammalian expression system assessed as residual activity at 50 nM by Kinomescan method relative to control
[12] = biological target: Tyrosine-protein kinase ABL2 (Homo sapiens) (UniProt P42684); test: Inhibition of wild-type human ARG (A248 to G542 residues) expressed in bacterial expression system assessed as residual activity at 50 nM by Kinomescan method relative to control
[13] = biological target: Mitogen-activated protein kinase kinase kinase 10 (Homo sapiens) (UniProt Q02779); test: Inhibition of wild-type human partial length MLK2 (V52 to W380 residues) expressed in bacterial expression system assessed as residual activity at 50 nM by Kinomescan method relative to control
[14] = biological target: Serine/threonine-protein kinase VRK2 (Homo sapiens) (UniProt Q86Y07); test: Inhibition of wild-type human partial length VRK2 (M1 to T336 residues) expressed in mammalian expression system assessed as residual activity at 50 nM by Kinomescan method relative to control
[15] = biological target: SRSF protein kinase 1 (Homo sapiens) (UniProt Q96SB4); test: Inhibition of wild-type human full length SRPK1 (M1 to S655 residues) expressed in bacterial expression system assessed as residual activity at 50 nM by Kinomescan method relative to control
[16] = biological target: Dual specificity protein kinase CLK4 (Homo sapiens) (UniProt Q9HAZ1); test: Inhibition of wild-type human partial length CLK4 (R135 to K481 residues) expressed in bacterial expression system assessed as residual activity at 50 nM by Kinomescan method relative to control
[17] = biological target: Epidermal growth factor receptor (Homo sapiens) (UniProt P00533); test: Inhibition of wild-type human partial length EGFR (R669 to V1011 residues) expressed in bacterial expression system assessed as residual activity at 50 nM by Kinomescan method relative to control
[18] = biological target: Death-associated protein kinase 1 (Homo sapiens) (UniProt P53355); test: Inhibition of wild-type human partial length DAPK1 (M1 to F296 residues) expressed in bacterial expression system assessed as residual activity at 50 nM by Kinomescan method relative to control
[19] = biological target: Tyrosine-protein kinase Srms (Homo sapiens) (UniProt Q9H3Y6); test: Inhibition of wild-type human partial length SRMS (L208 to P488 residues) expressed in mammalian expression system assessed as residual activity at 50 nM by Kinomescan method relative to control
[20] = biological target: Tyrosine-protein kinase ZAP-70 (Homo sapiens) (UniProt P43403); test: Inhibition of wild-type human partial length ZAP70 (D20 to G299 residues) expressed in mammalian expression system assessed as residual activity at 50 nM by Kinomescan method relative to control
[21] = biological target: AP2-associated protein kinase 1 (Homo sapiens) (UniProt Q2M2I8); test: Inhibition of human wild-type AAK1 (G25 to L333 residues) expressed in bacterial expression system assessed as residual activity at 50 nM by Kinomescan method relative to control
[22] = biological target: Tyrosine-protein kinase HCK (Homo sapiens) (UniProt P08631); test: Inhibition of wild-type human full length HCK (M22 to P526 residues) expressed in bacterial expression system assessed as residual activity at 50 nM by Kinomescan method relative to control
[23] = biological target: Uncharacterized serine/threonine-protein kinase SBK3 (Homo sapiens) (UniProt P0C264); test: Inhibition of wild-type human partial length SGK110 (L22 to R329 residues) expressed in bacterial expression system assessed as residual activity at 50 nM by Kinomescan method relative to control
[24] = biological target: Non-receptor tyrosine-protein kinase TYK2 (Homo sapiens, UniProt P29597); test: Inhibition of TYK2 (unknown origin) assessed as residual activity at 50 nM by KINOMEscan assay relative to control
[25] = biological target: cAMP-dependent protein kinase catalytic subunit PRKX (Homo sapiens) (UniProt P51817); test: Inhibition of wild-type human partial length PRKX (M1 to F358 residues) expressed in bacterial expression system assessed as residual activity at 50 nM by Kinomescan method relative to control
Chain of cAMP-dependent protein kinase catalytic subunit PRKX (Homo sapiens) (P51817 whole entry, the tested form may be a part): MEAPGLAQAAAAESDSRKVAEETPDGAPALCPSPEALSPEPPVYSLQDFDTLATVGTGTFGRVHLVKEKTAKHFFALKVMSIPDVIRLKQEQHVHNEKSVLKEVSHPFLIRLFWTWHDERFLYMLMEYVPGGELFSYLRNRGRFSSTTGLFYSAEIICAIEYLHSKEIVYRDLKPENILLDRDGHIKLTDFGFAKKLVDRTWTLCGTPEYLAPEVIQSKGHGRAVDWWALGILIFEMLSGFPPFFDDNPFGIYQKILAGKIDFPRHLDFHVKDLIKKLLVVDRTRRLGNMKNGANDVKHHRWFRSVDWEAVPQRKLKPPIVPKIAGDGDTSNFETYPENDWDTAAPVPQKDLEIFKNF

Chain of Mitogen-activated protein kinase 10 (Homo sapiens) (P53779 whole entry, the tested form may be a part): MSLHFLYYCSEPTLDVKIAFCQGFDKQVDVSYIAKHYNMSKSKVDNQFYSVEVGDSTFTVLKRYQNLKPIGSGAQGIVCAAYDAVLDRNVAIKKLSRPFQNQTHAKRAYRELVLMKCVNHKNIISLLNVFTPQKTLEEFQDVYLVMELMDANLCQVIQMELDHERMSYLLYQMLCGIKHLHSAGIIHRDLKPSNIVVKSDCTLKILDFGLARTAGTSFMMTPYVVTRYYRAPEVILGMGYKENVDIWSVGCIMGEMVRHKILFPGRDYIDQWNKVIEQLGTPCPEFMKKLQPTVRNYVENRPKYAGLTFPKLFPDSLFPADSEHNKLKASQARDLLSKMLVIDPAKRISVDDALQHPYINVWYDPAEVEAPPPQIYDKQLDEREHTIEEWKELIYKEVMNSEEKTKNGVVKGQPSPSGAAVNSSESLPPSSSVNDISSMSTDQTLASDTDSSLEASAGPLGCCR
Chain of Tyrosine-protein kinase ABL2 (Homo sapiens) (P42684 whole entry, the tested form may be a part): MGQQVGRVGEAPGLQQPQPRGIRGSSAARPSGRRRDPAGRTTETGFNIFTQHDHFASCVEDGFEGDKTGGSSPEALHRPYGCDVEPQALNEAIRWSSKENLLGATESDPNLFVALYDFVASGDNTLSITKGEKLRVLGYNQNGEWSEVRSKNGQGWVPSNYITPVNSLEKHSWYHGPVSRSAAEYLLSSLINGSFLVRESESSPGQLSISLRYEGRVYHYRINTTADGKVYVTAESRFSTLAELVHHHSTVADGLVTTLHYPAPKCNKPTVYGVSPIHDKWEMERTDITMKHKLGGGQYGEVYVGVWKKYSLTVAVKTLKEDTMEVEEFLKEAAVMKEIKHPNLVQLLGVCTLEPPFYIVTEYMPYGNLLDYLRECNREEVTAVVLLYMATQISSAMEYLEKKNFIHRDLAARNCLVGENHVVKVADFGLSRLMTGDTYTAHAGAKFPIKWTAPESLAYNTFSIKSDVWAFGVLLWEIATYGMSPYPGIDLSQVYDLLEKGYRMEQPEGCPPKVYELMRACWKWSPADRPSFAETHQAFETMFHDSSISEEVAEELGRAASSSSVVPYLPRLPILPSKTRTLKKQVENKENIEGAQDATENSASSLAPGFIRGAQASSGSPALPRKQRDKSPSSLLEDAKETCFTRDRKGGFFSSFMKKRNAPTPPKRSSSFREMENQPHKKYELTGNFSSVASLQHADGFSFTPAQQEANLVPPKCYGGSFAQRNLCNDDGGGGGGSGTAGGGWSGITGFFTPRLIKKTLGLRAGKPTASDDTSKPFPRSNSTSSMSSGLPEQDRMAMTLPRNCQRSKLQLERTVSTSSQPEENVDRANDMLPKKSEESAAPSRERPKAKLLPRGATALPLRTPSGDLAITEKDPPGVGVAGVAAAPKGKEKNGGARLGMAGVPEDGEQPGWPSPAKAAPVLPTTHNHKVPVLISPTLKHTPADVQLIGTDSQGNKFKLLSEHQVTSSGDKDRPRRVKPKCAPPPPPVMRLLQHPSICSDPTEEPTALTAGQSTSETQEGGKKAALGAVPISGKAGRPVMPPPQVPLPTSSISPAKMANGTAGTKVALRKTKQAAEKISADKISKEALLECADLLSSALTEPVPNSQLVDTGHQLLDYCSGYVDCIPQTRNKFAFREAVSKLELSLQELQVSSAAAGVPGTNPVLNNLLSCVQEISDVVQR
Chain of Epidermal growth factor receptor (Homo sapiens) (P00533 whole entry, the tested form may be a part): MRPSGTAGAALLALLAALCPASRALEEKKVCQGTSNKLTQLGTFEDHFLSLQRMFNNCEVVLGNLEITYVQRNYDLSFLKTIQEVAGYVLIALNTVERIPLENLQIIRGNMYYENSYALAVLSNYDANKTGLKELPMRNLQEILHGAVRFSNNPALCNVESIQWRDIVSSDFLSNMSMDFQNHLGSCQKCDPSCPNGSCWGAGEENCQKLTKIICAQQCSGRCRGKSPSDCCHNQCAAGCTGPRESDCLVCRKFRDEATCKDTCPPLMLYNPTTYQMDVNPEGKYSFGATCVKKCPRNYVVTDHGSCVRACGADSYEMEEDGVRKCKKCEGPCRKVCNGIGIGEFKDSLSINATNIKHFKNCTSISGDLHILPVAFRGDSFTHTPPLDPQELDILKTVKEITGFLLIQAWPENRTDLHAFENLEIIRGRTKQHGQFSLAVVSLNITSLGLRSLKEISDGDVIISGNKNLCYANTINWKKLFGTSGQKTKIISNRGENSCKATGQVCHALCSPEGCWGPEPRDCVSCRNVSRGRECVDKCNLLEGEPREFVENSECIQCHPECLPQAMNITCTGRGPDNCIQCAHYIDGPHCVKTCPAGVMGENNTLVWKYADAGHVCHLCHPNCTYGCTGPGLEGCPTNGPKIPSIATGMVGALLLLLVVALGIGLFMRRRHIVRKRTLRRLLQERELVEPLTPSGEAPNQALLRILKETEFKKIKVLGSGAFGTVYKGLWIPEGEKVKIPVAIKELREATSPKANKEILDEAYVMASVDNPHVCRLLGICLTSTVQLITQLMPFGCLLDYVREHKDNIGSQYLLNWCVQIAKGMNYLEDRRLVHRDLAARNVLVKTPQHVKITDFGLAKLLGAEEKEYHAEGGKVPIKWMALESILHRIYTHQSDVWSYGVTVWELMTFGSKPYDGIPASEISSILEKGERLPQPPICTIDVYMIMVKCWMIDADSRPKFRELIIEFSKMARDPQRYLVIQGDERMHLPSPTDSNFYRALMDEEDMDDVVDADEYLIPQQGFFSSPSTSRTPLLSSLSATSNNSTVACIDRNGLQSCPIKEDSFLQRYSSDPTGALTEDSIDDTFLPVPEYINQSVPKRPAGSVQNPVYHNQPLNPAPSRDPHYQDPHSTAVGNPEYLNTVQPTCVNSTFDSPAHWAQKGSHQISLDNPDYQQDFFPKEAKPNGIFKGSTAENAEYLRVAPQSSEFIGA
Chain of High affinity nerve growth factor receptor (Homo sapiens) (P04629 33-796 limits assumed): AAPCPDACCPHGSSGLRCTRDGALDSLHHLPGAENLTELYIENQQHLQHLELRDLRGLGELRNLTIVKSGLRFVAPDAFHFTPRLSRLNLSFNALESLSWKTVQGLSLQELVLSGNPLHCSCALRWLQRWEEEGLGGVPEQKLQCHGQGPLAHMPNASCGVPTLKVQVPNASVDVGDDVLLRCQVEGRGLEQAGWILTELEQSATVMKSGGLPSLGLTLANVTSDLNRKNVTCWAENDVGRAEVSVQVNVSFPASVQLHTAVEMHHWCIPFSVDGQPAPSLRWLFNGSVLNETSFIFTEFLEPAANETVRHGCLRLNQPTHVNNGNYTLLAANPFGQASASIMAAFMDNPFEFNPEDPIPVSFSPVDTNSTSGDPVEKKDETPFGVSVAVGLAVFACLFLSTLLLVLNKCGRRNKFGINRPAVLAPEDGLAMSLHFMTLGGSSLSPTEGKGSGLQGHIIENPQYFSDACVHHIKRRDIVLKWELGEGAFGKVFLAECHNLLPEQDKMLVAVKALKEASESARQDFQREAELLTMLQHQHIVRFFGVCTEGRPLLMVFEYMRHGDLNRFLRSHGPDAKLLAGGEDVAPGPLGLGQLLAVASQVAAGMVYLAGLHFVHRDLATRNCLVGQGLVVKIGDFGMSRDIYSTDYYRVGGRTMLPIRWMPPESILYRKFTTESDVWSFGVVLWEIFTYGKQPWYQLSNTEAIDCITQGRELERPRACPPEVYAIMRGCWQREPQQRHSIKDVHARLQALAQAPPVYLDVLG
Chain of Mitogen-activated protein kinase kinase kinase 10 (Homo sapiens) (Q02779 whole entry, looked up, the tested form may be a part): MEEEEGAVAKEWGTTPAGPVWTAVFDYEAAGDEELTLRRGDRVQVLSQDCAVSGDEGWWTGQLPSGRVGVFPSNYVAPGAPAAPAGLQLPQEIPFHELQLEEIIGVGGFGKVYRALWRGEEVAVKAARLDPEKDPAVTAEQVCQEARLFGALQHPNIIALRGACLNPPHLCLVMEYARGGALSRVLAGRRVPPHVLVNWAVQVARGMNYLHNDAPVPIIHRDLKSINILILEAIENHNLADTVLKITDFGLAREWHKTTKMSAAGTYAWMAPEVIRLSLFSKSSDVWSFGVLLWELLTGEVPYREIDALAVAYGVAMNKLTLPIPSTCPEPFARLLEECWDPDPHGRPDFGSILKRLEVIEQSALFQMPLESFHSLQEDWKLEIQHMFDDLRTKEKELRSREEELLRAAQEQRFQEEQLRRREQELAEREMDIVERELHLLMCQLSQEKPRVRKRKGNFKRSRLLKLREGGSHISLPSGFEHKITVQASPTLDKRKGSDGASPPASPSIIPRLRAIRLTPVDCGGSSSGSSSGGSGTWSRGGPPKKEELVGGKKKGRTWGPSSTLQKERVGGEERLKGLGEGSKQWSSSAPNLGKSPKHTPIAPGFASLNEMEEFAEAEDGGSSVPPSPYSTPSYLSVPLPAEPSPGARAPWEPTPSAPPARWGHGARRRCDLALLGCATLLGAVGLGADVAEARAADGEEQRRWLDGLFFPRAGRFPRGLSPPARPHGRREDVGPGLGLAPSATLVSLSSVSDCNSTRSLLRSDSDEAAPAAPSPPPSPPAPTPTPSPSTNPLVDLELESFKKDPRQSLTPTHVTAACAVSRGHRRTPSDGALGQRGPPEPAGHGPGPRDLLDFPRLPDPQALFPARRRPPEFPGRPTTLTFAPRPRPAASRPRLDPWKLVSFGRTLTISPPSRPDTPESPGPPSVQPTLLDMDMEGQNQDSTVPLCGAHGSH

SMILES	Activity [1] [%]	Activity [2] [%]	Activity [3] [%]	Activity [4] [%]	Activity [5] [%]	Activity [6] [%]	Activity [7] [%]	Activity [8] [%]	Activity [9] [%]	Activity [10] [%]	Activity [11] [%]	Activity [12] [%]	Activity [13] [%]	Activity [14] [%]	Activity [15] [%]	Activity [16] [%]	Activity [17] [%]	Activity [18] [%]	Activity [19] [%]	Activity [20] [%]	further results
CC1(C)[C@H](Nc2c(C(N)=O)cnn3cc(-c4ccccc4)cc23)CC[C@]1(C)N	18	87	100	80	100	100	47	76	88	83	54	91	100	70	80	100	30	63	64	79	Activity [21]: 63%; Activity [22]: 100%; Activity [23]: 41%; Activity [24]: 50%; Activity [25]: 59%
COc1ccc(-c2cc3c(N[C@@H]4CC[C@](C)(N)C4(C)C)c(C(N)=O)cnn3c2)cn1	49	100	92	100	100	98	72	99	100	100	59	91	94	85	62	100	100	96	94	92	Activity [21]: 73%; Activity [22]: 100%; Activity [23]: 62%; Activity [24]: 50%; Activity [25]: 100%
